Legend:
Format in all cases: biochemical
[1] = biological target: T1, DYRK1A (Homo sapiens, UniProt Q13627); assay: Inhibition test on activity of DYRK family, mobility shift assay (MSA), DYRK1A; settings: ATP 100 μM, FITC-labeled DYRKtide peptide substrate, room temperature 1 hour; for IC50: read-out: Inhibitory Activity 1a (IC50 against DYRK1A)
T1 construct: purchased Carna Biosciences, Inc. 04-130
Outline: (§1)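 FITC-DYRKtide phosphorylation in 20 mM HEPES pH 7.5 with MgCl2; ATP in the substrate mix was 100 μM (DYRK1A), 200 μM (DYRK1B), 40 μM (DYRK2) or 20 μM (DYRK3). Reactions ran 1 h at room temperature; inhibition from P/(P+S) versus blank and DMSO control, IC50 by regression on log concentration.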

[2] = biological target: T2, DYRK1B (Homo sapiens, UniProt Q9Y463); assay: Inhibition test on activity of DYRK family, mobility shift assay (MSA), DYRK1B; design: Inhibitory Activity 1b (IC50 against DYRK1B): scale not given here; settings: ATP 200 μM, FITC-labeled DYRKtide peptide substrate, room temperature 1 hour; for IC50: read-out: Inhibitory Activity 1b (IC50 against DYRK1B)
T2 construct: purchased Carna Biosciences, Inc. 04-131
T2 sequence (Q9Y463 whole entry): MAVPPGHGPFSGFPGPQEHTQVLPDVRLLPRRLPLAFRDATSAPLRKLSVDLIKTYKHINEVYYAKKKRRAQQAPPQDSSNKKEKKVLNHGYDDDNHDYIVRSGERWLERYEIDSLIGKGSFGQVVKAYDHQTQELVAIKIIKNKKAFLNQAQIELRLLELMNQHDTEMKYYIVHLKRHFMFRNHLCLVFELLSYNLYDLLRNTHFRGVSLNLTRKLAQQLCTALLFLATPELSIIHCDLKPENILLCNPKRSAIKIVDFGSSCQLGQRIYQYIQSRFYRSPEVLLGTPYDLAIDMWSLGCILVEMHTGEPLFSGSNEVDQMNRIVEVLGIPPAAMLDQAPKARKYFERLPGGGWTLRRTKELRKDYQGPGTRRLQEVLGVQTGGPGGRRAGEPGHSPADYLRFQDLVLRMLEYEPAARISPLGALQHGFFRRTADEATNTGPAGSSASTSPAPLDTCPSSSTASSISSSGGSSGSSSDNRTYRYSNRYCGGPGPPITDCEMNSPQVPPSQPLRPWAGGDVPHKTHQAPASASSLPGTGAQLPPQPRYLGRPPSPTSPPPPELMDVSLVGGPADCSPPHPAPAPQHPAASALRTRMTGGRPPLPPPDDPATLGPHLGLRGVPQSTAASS
Protocol: [Inhibition Test on Activity of DYRK Family (DYRK1A, DYRK1B, DYRK2, and […])]
(Method for Measuring Kinase Activity)
The kinase activity was measured by mobility shift assay (MSA) method using QuickScout Screening Assist™ MSA (commercially available kit manufactured by Carna Biosciences, Inc.). The substrate of the kinase reaction used was an FITC-labeled DYRKtide peptide included in the kit. An assay buffer [20 mM HEPES, 0.01% Triton X-100™, 2 mM dithiothreitol, pH 7.5] was used to create a substrate mixture solution with a substrate (4 μM), MgCl2 (20 mM), and ATP (DYRK1A: 100 μM; DYRK1B: 200 μM; DYRK2: 40 μM; and DYRK3: 20 μM). In addition, kinases (DYRK1A: manufactured by Carna Biosciences, Inc., Cat. No. 04-130; DYRK1B: manufactured by Carna Biosciences, Inc., Cat. No. 04-131; DYRK2; manufactured by Carna Biosciences, Inc., Cat. No. 04-132; and DYRK3; manufactured by Carna Biosciences, Inc., Cat. No. 04-133) were diluted with the assay buffer to prepare enzyme solutions (DYRK1A: 0.2 ng/μL; DYRK1B: 0.08 ng/μL; DYRK2: 0.04 ng/μL; and DYRK3: 0.25 ng/μL). The 10 mM solution of the test compound in DMSO was further diluted with DMSO to 10 levels of the concentration (0.00003 mM, 0.0001 mM, 0.0003 mM, 0.001 mM, 0.003 mM, 0.01 mM, 0.03 mM, 0.1 mM, 0.3 mM, and 1 mM), each of which was subjected to 25-fold dilution with the assay buffer to obtain a drug solution (4% DMSO solution). 5 μL of the drug solution or a control solution (4% DMSO-assay buffer), 5 μL of the substrate mixture solution, and 10 μL of the enzyme solution were mixed in the wells of a polypropylene 384-well plate and allowed to react at room temperature for 1 hour, and then the reaction was quenched by adding 60 μL of the termination buffer included in the kit. Subsequently, the quantities of the substrates (S) and the phosphorylated substrate (P) in the reaction solution were measured using LabChip EZ Reader II system (manufactured by Caliper Life Sciences) according to the protocol of the assay kit.
(Method for Evaluating Inhibitory Activity)
The heights of the peaks of the “substrate” and the “phosphorylated substrate” were expressed as S and P, respectively, and a blank containing the assay buffer instead of the enzyme solution was also measured.
The inhibition rate (%) of the test compound was calculated according to the following equation:
Inhibition rate (%)=(1−(C−A)/(B−A))×100
wherein, A, B, and C represent P/(P+S) of the blank well, P/(P+S) of the control solution well, and P/(P+S) of the compound-containing well, respectively.
The IC50 value was calculated via a regression analysis of the inhibition rate and the test compound concentration (logarithmic value).
The inhibiting activities of representative compounds of the present invention are shown against DYRK1A, DYRK1B, DYRK2, and DYRK3 in Tables 7 and 8. The kinase activity inhibitory effect was indicated with the mark *** at an IC50 value of less than 0.01 μM; the mark ** at 0.01 μM or more and less than 0.1 μM; the mark * at 0.1 μM or more and less than 1 μM; and the mark — at 1 μM or more (N.D. indicates not measured).

[3] = biological target: T3, DYRK2 (Homo sapiens, UniProt Q92630); assay: Inhibition test on activity of DYRK family, mobility shift assay (MSA), DYRK2; settings: ATP 40 μM, FITC-labeled DYRKtide peptide substrate, room temperature 1 hour; for IC50: read-out: Inhibitory Activity 2 (IC50 against DYRK2)
T3 construct: purchased Carna Biosciences, Inc. 04-132
T3 sequence (Q92630 1-601): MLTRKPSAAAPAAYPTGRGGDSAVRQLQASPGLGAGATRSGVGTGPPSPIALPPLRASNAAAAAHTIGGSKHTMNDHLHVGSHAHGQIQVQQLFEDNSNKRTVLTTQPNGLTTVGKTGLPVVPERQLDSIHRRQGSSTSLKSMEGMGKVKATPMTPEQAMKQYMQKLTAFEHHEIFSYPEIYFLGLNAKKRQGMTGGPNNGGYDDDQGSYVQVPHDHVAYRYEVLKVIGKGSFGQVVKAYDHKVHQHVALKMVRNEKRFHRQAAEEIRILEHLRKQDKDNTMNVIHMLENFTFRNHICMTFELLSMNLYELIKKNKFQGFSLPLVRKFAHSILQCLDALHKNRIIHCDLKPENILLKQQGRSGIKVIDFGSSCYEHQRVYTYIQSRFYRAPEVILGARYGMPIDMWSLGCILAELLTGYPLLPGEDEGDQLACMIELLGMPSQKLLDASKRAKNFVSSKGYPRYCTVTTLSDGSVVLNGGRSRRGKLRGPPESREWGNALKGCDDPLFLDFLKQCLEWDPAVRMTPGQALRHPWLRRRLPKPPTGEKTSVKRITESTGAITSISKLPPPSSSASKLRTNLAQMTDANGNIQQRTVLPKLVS
Outline: as §1

[4] = biological target: T4, DYRK3 (Homo sapiens, UniProt O43781); assay: Inhibition test on activity of DYRK family, mobility shift assay (MSA), DYRK3; settings: ATP 20 μM, FITC-labeled DYRKtide peptide substrate, room temperature 1 hour; for IC50: read-out: Inhibitory Activity 3 (IC50 against DYRK3)
T4 construct: purchased Carna Biosciences, Inc. 04-133
T4 sequence (O43781 1-588): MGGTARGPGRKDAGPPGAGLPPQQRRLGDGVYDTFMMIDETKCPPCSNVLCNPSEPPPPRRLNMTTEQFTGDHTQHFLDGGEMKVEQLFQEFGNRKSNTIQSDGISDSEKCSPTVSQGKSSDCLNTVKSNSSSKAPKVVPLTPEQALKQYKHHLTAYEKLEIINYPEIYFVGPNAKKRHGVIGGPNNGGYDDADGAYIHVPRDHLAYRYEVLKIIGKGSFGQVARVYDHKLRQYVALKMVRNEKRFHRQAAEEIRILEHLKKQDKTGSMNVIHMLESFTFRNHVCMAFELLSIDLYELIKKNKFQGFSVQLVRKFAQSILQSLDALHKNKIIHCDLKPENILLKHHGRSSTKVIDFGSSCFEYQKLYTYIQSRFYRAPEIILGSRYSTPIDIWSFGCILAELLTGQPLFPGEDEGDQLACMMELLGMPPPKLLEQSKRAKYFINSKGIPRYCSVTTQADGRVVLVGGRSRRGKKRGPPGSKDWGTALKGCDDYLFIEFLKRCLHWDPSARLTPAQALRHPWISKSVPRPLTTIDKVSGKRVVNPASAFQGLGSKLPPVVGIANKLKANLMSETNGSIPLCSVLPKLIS
Outline: as §1

Inhibitory Activity 1a (IC50 against DYRK1A) [1]	Inhibitory Activity 1b (IC50 against DYRK1B) [2]	IC50 [3] [µM]	IC50 [4] [µM]	Inhibitory Activity 2 (IC50 against DYRK2) [3]	Inhibitory Activity 3 (IC50 against DYRK3) [4]	IC50 [1] [µM]	IC50 [2] [µM]	SMILES
* *	* *	0.1 to 1	0.1 to 1					CC#CC1CNC(=O)N1c1nc2c(ccc3ncn(CCOC)c32)s1 (racemic) [Example 33, (RS)-1-[8-(2-methoxyethyl)-8H-imidazo[4′,5′:5,6]benz[1,2-d]thiazol-2-yl]-5-(prop-1-yn-1-yl)imidazolidin-2-one]
* * *	* * *	0.1 to 1	0.1 to 1					CC#CC1CNC(=O)N1c1nc2c3c(ccc2s1)OCCN3C (racemic) [Example 25, (RS)-1-(9-methyl-8,9-dihydro-7H-thiazolo[4′,5′;3,4]benz[1,2-b][1,4]oxazin-2-yl)-5-(prop-1-yn-1-yl)imidazolidin-2-one]
* * *	* * *	0.1 to 1	0.1 to 1					CC#CC1CNC(=O)N1c1nc2c(ccc3nnn(C)c32)s1 (single isomer, unassigned) [Example 30, 1-(1-methyl-1H-thiazolo[4′,5′:3,4]benz[1,2-d][1,2,3]triazol-7-yl)-5-(prop-1-yn-1-yl)imidazolidin-2-one]
* * *	* * *	0.1 to 1	0.1 to 1					CC#CC1CNC(=O)N1c1nc2c(ccc3nccnc32)s1 (racemic) [Example 24, (RS)-5-(prop-1-yn-1-yl)-1-(thiazolo[4,5-f]quinoxalin-2-yl)imidazolidin-2-one]
* **	* * *	0.1 to 1			* *			CC#CC1CNC(=O)N1c1nc2c(ccc3ncccc32)s1 (racemic) [Example 27, (RS)-5-(prop-1-yn-1-yl)-1-(thiazolo[4,5-f]quinolin-2-yl)imidazolidin-2-one]
		≥ 1	≥ 1			0.1 to 1	0.1 to 1	CC#CC1CNC(=O)N1c1nc2c(ccc3nnn(C)c32)s1 (single isomer, unassigned) [Example 29, 1-(1-methyl-1H-thiazolo[4′,5′:3,4]benz[1,2-d][1,2,3]triazol-7-yl)-5-(prop-1-yn-1-yl)imidazolidin-2-one]
* * *	* * *	0.1 to 1			* *			CC#CC1CNC(=O)N1c1nc2c(ccc3ncn(C)c32)s1 (racemic) [Example 26, (RS)-1-(8-methyl-8H-imidazo[4′,5′:5,6]benz[1,2-d]thiazol-2-yl)-5-(prop-1-yn-1-yl)imidazolidin-2-one]

Continued, compound first:

SMILES	Inhibitory Activity 1a (IC50 against DYRK1A) [1]	Inhibitory Activity 1b (IC50 against DYRK1B) [2]	IC50 [3] [µM]	IC50 [4] [µM]	Inhibitory Activity 2 (IC50 against DYRK2) [3]	Inhibitory Activity 3 (IC50 against DYRK3) [4]	IC50 [1] [µM]	IC50 [2] [µM]
CC#CC1CNC(=O)N1c1nc2c(ccc3ncn(C4CCOCC4)c32)s1 (racemic) [Example 32, (RS)-5-(prop-1-yn-1-yl)-1-[8-(tetrahydro-2H-pyran-4-yl)-8H-imidazo[4′,5′:5,6]benz [1,2-d]thiazol-2-yl]imidazolidin-2-one]	* * *	* * *			* *	* *		
CC#CC1CNC(=O)N1c1nc2c3c(ccc2s1)OCCN3C(C)=O (racemic) [Example 39, (RS)-1-(9-acetyl-8,9-dihydro-7H-thiazolo[4′,5′:3,4]benz[1,2-b][1,4]oxazin-2-yl)-5-(prop-1-yn-1-yl)imidazolidin-2-one]			≥ 1	≥ 1			0.1 to 1	≥ 1
CC#CC1CNC(=O)N1c1nc2c3c(ccc2s1)OCCN3 (racemic) [Example 38, (RS)-1-(8,9-dihydro-7H-thiazolo[4′,5′:3,4]benz[1,2-b][1,4]oxazin-2-yl)-5-(prop-1-yn-1-yl)imidazolidin-2-one]	* * *	* * *	0.1 to 1	0.1 to 1				
CC#C[C@@H]1CNC(=O)N1c1nc2c3c(ccc2s1)OCO3 [Example 2, (R)-1-([1,3]dioxolo[4′,5′:5,6]benzo[1,2-d]thiazol-7-yl)-5-(1-propyn-1-yl)imidazolidin-2-one]	* * *	* * *			* *	* *		
CC#CC1CNC(=O)N1c1nc2c3c(ccc2s1)OCCN3CCOC (racemic) [Example 42, (RS)-1-[9-(2-methoxyethyl)-8,9-dihydro-7H-thiazolo[4′,5′:3,4]benz[1,2-b][1,4]oxazin-2-yl]-5-(prop-1-yn-1-yl)imidazolidin-2-one]	* * *		≥ 1	0.1 to 1				
